# Measurements from US7767659B2, “Synthesis of naturally occurring ecteinascidins and related compounds” (Pharma Mar, S.A., priority 2002, dated 2010).
# Like-named read-outs stand apart in the source and are kept apart here.
# Assays:
# [1] = test system: LoVo; assay: cells; settings: Homo sapiens, LoVo, 48 h
# Outline: (§1)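 Colorimetric SRB read (490 nm) on triplicate wells after 48 h at 37 °C, 5% CO2. Dose range 10 to 10^−8 μg/ml; 5×10^3 cells/well pre-attached 18 h.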
# [2] = test system: A-549; assay: cells; settings: Homo sapiens, A549, 48 h
# Outline: as §1
# [3] = test system: HT-29; assay: cells; settings: Homo sapiens, HT-29, 48 h
# Outline: as §1
# [4] = test system: IGROV-ET; assay: Inhibition of cells growth by colorimetric assay (SRB); settings: Homo sapiens, 48 h
# Outline: as §1
# [5] = test system: IGROV-1; assay: as above; settings: Homo sapiens, IGROV-1, 48 h
# Outline: as §1
# [6] = test system: K-562; assay: as above; settings: Homo sapiens, K562, 48 h
# Outline: as §1
# [7] = test system: HeLa; assay: as above; settings: Homo sapiens, HeLa, 48 h
# Outline: as §1
# [8] = test system: LoVo-Dox; assay: as above; settings: Homo sapiens, 48 h
# Outline: as §1
# [9] = test system: LNCaP; assay: as above; settings: Homo sapiens, LNCaP, 48 h
# Outline: as §1
# [10] = test system: PANC-1; assay: as above; settings: Homo sapiens, PANC-1, 48 h
# Outline: as §1
# [11] = test system: SK-MEL-28; assay: as above; settings: Homo sapiens, SK-MEL-28, 48 h
# Outline: as §1
# [12] = test system: SK-BR-3; assay: as above; settings: Homo sapiens, SK-BR-3, 48 h
# Outline: as §1
# [13] = test system: HeLa-APL; assay: as above; settings: Homo sapiens, 48 h
# Outline: as §1
# [14] = test system: DU-145; assay: as above; settings: Homo sapiens, DU-145, 48 h
# Outline: as §1
compound,measurement,setting,value
COc1cc2c(cc1O)CCN[C@]21C[S+]([O-])[C@@H]2c3c(OC(C)=O)c(C)c4c(c3[C@H](COC1=O)N1C2C2c3c(cc(C)c(OC)c3O)C[C@@H]([C@@H]1O)N2C)OCO4 (stereo partly drawn) [Et-759B],GI50,[1]; read-out: LOVO GI50,0.327 µM
same,CC50,[1]; read-out: LOVO LC50,0.118 µM
same,IC (TGI),[1]; read-out: LOVO TGI,0.0621 µM
same,GI50,[2]; read-out: A549 GI50,0.0262 µM
same,CC50,[2]; read-out: A549 LC50,0.702 µM
same,IC (TGI),[2]; read-out: A549 TGI,0.0613 µM
same,GI50,[3]; read-out: HT29 GI50,0.0419 µM
same,CC50,[3]; read-out: HT29 LC50,12.9 µM
same,IC (TGI),[3]; read-out: HT29 TGI,2.29 µM
same,GI50,[4]; read-out: IGROV-ET GI50,0.0582 µM
same,CC50,[4]; read-out: IGROV-ET LC50,1.71 µM
same,IC (TGI),[4]; read-out: IGROV-ET TGI,0.273 µM
same,GI50,[5]; read-out: IGROV GI50,0.0229 µM
same,CC50,[5]; read-out: IGROV LC50,10 µM
same,IC (TGI),[5]; read-out: IGROV TGI,0.0652 µM
same,GI50,[6]; read-out: K562 GI50,0.006 µM
same,CC50,[6]; read-out: K562 LC50,12.9 µM
same,IC (TGI),[6]; read-out: K562 TGI,0.0379 µM
same,GI50,[7]; read-out: HELA GI50,0.0213 µM
same,CC50,[7]; read-out: HELA LC50,0.527 µM
same,IC (TGI),[7]; read-out: HELA TGI,0.0642 µM
same,GI50,[8]; read-out: LOVO-DOX GI50,0.192 µM
same,CC50,[8]; read-out: LOVO-DOX LC50,12.9 µM
same,IC (TGI),[8]; read-out: LOVO-DOX TGI,0.625 µM
same,GI50,[9]; read-out: LNCAP GI50,0.00464 µM
same,CC50,[9]; read-out: LNCAP LC50,0.0522 µM
same,IC (TGI),[9]; read-out: LNCAP TGI,0.0167 µM
same,GI50,[10]; read-out: PANC-1 GI50,0.0355 µM
same,CC50,[10]; read-out: PANC-1 LC50,11 µM
same,IC (TGI),[10]; read-out: PANC-1 TGI,0.122 µM
same,GI50,[11]; read-out: MEL-28 GI50,0.0197 µM
same,CC50,[11]; read-out: MEL-28 LC50,0.123 µM
same,IC (TGI),[11]; read-out: MEL-28 TGI,0.0491 µM
same,GI50,[12]; read-out: SK-BR3 GI50,0.00537 µM
same,CC50,[12]; read-out: SK-BR3 LC50,0.0881 µM
same,IC (TGI),[12]; read-out: SK-BR3 TGI,0.0116 µM
same,GI50,[13]; read-out: HELA-APL GI50,0.0359 µM
same,CC50,[13]; read-out: HELA-APL LC50,1.04 µM
same,IC (TGI),[13]; read-out: HELA-APL TGI,0.102 µM
same,GI50,[14]; read-out: DU145 GI50,0.391 µM
same,CC50,[14]; read-out: DU145 LC50,11.9 µM
same,IC (TGI),[14]; read-out: DU145 TGI,3.2 µM
COc1c(C)cc2c(c1O)[C@@H]1C3[C@@H]4SC[C@]5(NCCc6c5[nH]c5ccccc65)C(=O)OC[C@@H](c5c6c(c(C)c(OC(C)=O)c54)OCO6)N3[C@@H](C#N)[C@H](C2)N1C (stereo partly drawn) [compound 22],GI50,[1]; read-out: GI50 LOVO,0.0203 µM
same,CC50,[1]; read-out: LC50 LOVO,0.0965 µM
same,IC (TGI),[1]; read-out: TGI LOVO,0.0411 µM
same,GI50,[2]; read-out: GI50 A549,0.0267 µM
same,CC50,[2]; read-out: LC50 A549,0.131 µM
same,IC (TGI),[2]; read-out: TGI A549,0.059 µM
same,GI50,[3]; read-out: GI50 HT29,0.0297 µM
same,CC50,[3]; read-out: LC50 HT29,13.1 µM
same,IC (TGI),[3]; read-out: TGI HT29,0.0825 µM
same,GI50,[4]; read-out: GI50 IGROV-ET,0.0522 µM
same,CC50,[4]; read-out: LC50 IGROV-ET,0.131 µM
same,IC (TGI),[4]; read-out: TGI IGROV-ET,0.104 µM
same,GI50,[5]; read-out: GI50 IGROV,0.0191 µM
same,CC50,[5]; read-out: LC50 IGROV,0.104 µM
same,IC (TGI),[5]; read-out: TGI IGROV,0.0446 µM
same,GI50,[6]; read-out: GI50 K562,0.00592 µM
same,CC50,[6]; read-out: LC50 K562,0.84 µM
same,IC (TGI),[6]; read-out: TGI K562,0.0424 µM
same,GI50,[7]; read-out: GI50 HELA,0.0332 µM
same,CC50,[7]; read-out: LC50 HELA,0.158 µM
same,IC (TGI),[7]; read-out: TGI HELA,0.0566 µM
same,GI50,[8]; read-out: GI50 LOVO-DOX,0.0874 µM
same,CC50,[8]; read-out: LC50 LOVO-DOX,13.1 µM
same,IC (TGI),[8]; read-out: TGI LOVO-DOX,0.524 µM
same,GI50,[9]; read-out: GI50 LNCAP,0.00615 µM
same,CC50,[9]; read-out: LC50 LNCAP,0.055 µM
same,IC (TGI),[9]; read-out: TGI LNCAP,0.0211 µM
same,GI50,[10]; read-out: GI50 PANC-1,0.0296 µM
same,CC50,[10]; read-out: LC50 PANC-1,0.854 µM
same,IC (TGI),[10]; read-out: TGI PANC-1,0.0738 µM
same,GI50,[11]; read-out: GI50 MEL-28,0.0302 µM
same,CC50,[11]; read-out: LC50 MEL-28,0.102 µM
same,IC (TGI),[11]; read-out: TGI MEL-28,0.0555 µM
same,GI50,[12]; read-out: GI50 SK-BR3,0.00577 µM
same,CC50,[12]; read-out: LC50 SK-BR3,0.12 µM
same,IC (TGI),[12]; read-out: TGI SK-BR3,0.0223 µM
same,GI50,[13]; read-out: GI50 HELA-APL,0.0211 µM
same,CC50,[13]; read-out: LC50 HELA-APL,0.0935 µM
same,IC (TGI),[13]; read-out: TGI HELA-APL,0.0444 µM
same,GI50,[14]; read-out: GI50 DU145,0.0296 µM
same,CC50,[14]; read-out: LC50 DU145,1.31 µM
same,IC (TGI),[14]; read-out: TGI DU145,0.0868 µM
